Source: patent US8546409B2, “Methods of treatment for solid tumors” (priority 2009, dated 2013)
Entries after “also recorded” stand apart in the source; their conditions may differ. Like-named read-outs stand apart in the source and are kept apart here.

How the values were obtained:
786-0 = experiment: NCI panel growth inhibition, 786-0; type: cell-based; details: Homo sapiens, Renal
Description: (§1) Compound I has also been tested in a battery of tumor cell assays known as the NCI panel.

[1] = tested on: Akt phosphorylation in OVCAR-3 (ovarian cancer); experiment: Phosphorylation of Akt in OVCAR-3 cells (FIG. 4); type: cell-based; details: OVCAR-3, 10 micromolar
Description: This distinguishes compound I from other known PI3K inhibitors in development for treatment of solid tumors, which are believed to act primarily at the p110α isoform or on p110α plus other isoforms, or even on all PI3Ks plus mTOR.

SK-MEL-2 = experiment: NCI panel growth inhibition, SK-MEL-2; type: cell-based; details: Homo sapiens, Melanoma
Description: as §1

mTOR = mTOR (Homo sapiens, UniProt P42345); experiment: Inhibition of kinase activity of other lipid kinases, mTOR; type: biochemical; details: read-out: IC-50 for inhibition of kinase activity, mTOR
ACHN = experiment: NCI panel growth inhibition, ACHN; type: cell-based; details: Homo sapiens, Renal
Description: as §1

p110δ = target: T1, p110δ (Homo sapiens, UniProt O00329); experiment: Chick embryo fibroblast (CEF) transformation assay, p110δ; type: cell-based; details: read-out: EC-50 for inhibition of functional activity of p110δ
T1 construct: expressed in transfected cells; host or cells: chick embryo fibroblasts (CEF), viral transduction
T1 sequence (O00329 whole entry): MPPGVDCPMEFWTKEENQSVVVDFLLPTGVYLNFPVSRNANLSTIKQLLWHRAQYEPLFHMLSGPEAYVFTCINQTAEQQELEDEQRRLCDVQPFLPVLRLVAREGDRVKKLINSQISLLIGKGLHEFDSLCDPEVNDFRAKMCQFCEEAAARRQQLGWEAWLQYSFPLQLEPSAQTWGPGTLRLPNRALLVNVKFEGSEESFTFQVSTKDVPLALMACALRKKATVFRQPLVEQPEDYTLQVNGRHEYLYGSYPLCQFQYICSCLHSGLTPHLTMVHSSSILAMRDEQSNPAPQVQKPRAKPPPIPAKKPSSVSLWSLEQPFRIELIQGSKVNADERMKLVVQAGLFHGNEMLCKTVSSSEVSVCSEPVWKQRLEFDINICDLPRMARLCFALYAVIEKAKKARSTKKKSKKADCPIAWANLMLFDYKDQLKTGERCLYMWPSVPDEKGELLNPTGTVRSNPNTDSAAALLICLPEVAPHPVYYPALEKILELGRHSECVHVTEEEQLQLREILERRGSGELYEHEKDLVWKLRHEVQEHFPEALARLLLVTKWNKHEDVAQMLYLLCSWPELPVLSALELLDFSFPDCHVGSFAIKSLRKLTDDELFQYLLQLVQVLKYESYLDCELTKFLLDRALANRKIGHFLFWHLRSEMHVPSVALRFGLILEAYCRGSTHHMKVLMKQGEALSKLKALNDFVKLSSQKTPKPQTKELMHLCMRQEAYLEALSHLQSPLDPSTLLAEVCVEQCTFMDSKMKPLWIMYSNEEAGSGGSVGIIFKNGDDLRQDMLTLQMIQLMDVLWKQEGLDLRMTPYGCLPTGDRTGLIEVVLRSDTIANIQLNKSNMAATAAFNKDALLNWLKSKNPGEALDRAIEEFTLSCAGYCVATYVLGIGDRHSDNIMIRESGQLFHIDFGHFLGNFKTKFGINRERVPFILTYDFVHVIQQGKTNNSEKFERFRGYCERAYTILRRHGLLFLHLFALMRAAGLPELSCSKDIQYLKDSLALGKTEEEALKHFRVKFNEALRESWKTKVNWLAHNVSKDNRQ
Description: Moreover, compound I has comparatively low activity on p110α in a cell-transformation system designed to measure functional activity of these kinases, but is a potent inhibitor of both p110β and p110δ in that assay. See Example 1. This chick embryo fibroblast (CEF) transformation system has been reported as a useful way to assess the functional activity of the PI3K signaling pathway. Denley, et al., “Oncogenic signaling of class I PI3K isoforms,” Oncogene, vol. 27(18), 2561-74 (2008). Transformation of CEF cells in the assay depends upon functional kinase activity. Kang, et al., Proc. Nat'l Acad. Sci. USA, vol. 103(5), 1289-94 (2006). The readout of this assay is based on the frequency of transformation of CEF cells exposed to viral vectors carrying a specific p110 isoform of interest.
Chick embryo fibroblasts (CEF) are transduced with viral stocks with versions of the human genes for the individual PI3K isoforms p110α, p110β, p110δ and p110γ. These transduced CEF lines are then plated in a growth medium where oncogenically transformed cells form foci that can then be stained and counted. […] Denley A, Kang S, Karst U and Vogt PK, “Oncogenic signaling of class 1 PI3K isoforms.” Oncogene (2008) 27: 2561-2574. FIG. 3 illustrates the readout of this assay.

KM12 = experiment: NCI panel growth inhibition, KM12; type: cell-based; details: Homo sapiens, Colon Cancer
Description: as §1

LOX IMVI = experiment: NCI panel growth inhibition, LOX IMVI; type: cell-based; details: Homo sapiens, Melanoma
Description: as §1

[2] = mouse
Description: Bioavailability of Compound I upon oral administration is especially good; even compared to other quinazolinones of similar structures. For example, FIG. 6 illustrates that Compound I produces higher plasma concentrations of drug than another quinazolinone compound having a similar structure (Compound B). […] The degree of difference in oral bioavailability between Compound I and Compound B observed in this test is surprising.
Treatments of the invention typically involve administration of compound Ito a subject in need of treatment on a daily basis for at least one week or more than one week, often for 2-4 weeks, and sometimes for 1-3 months or more. The half-life of Compound I in vivo in mice and rats is several hours—see FIG. 6. It is thus sometimes desirable to administer compound I in multiple doses each day, in order to maintain efficacious plasma levels over a prolonged period of time. Administration may be done in two doses per day, or three doses per day, or in some embodiments, four doses per day or more, particularly when Compound I is administered orally. Alternatively, Compound I can be administered intravenously at a rate that maintains an efficacious plasma level for a prolonged period of time. Suitably, it would be administered at a rate to achieve a plasma level of at least about 1 micromolar, or at least 3 micromolar, or at least 5 micromolar.

BT-549 = experiment: NCI panel growth inhibition, BT-549; type: cell-based; details: Homo sapiens, Breast Cancer
Description: as §1

PC-3 = experiment: NCI panel growth inhibition, PC-3; type: cell-based; details: Homo sapiens, Prostate
Description: as §1

OVCAR-3 xenografts = experiment: Ovarian cancer cell xenografts in nu/nu mice (FIG. 8); type: in vivo; details: 30 mg/kg BID, 36 days, female nu/nu mice
Protocol: Female nu/nu mice bearing OVCAR-3 xenografts (human ovarian cancer cells) were maintained until tumor volume measured about 100 mm^3. At that point, treatment began with compound I at a rate of 30 mg/kg administered twice per day.

SK-MEL-5 = experiment: NCI panel growth inhibition, SK-MEL-5; type: cell-based; details: Homo sapiens, Melanoma
Description: as §1

SK-OV-3 = experiment: NCI panel growth inhibition, SK-OV-3; type: cell-based; details: Homo sapiens, Ovarian
Description: as §1

p110γ = target: T2, p110γ (Homo sapiens, UniProt P48736); experiment: Cell-based p110γ assay: fMLP stimulated CD63 movement to surface of basophils
T2 construct: endogenous in cells; host or cells: basophils
T2 sequence (P48736 whole entry, species assumed): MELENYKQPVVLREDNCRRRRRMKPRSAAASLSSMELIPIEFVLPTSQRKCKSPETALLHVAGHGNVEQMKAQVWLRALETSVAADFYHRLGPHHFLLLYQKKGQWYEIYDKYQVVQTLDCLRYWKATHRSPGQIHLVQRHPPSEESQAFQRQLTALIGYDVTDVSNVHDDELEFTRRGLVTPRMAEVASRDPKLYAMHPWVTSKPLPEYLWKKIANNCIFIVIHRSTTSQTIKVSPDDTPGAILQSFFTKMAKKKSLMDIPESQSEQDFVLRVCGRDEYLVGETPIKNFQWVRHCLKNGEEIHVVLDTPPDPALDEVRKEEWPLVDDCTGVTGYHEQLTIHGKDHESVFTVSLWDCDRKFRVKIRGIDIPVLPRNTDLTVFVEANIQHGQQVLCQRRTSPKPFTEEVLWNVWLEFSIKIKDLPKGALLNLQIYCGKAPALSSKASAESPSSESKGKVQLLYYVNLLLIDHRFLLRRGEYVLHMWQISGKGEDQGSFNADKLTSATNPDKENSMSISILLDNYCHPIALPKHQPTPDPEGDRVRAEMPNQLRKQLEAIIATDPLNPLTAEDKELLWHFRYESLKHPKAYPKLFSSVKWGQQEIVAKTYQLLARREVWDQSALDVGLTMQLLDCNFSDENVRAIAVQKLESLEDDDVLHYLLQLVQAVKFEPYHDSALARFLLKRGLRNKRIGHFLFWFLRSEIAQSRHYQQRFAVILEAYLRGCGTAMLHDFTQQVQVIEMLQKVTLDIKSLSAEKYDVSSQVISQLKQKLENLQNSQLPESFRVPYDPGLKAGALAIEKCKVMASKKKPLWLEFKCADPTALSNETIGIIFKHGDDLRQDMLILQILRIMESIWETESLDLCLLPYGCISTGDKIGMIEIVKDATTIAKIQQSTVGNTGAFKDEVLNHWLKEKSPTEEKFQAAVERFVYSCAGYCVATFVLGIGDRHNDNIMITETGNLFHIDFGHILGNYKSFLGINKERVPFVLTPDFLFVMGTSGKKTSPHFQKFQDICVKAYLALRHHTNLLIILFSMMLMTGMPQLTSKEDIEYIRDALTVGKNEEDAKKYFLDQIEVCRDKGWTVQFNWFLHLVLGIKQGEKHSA
Protocol: (§2) The p110α assay used SW3T3 cells stimulated by PDGF, and p110 kinase activity was measured by Akt phosphorylation. The p110β activity was measured by lysophosphatidic acid stimulation of Akt phosphorylation in mouse embryonic fibroblasts. The activity of p110δ was measured by anti-FcεR1 antibody cross linking stimulation of CD63 movement to the surface of basophils. Finally, the activity of p110γ was measured by fMLP stimulation of CD63 antigen movement to the cell surface of basophils.

p110α = target: T3, p110α (Mus musculus, UniProt P42337); experiment: Cell-based p110α assay: PDGF-stimulated Akt phosphorylation in SW3T3 cells
T3 construct: endogenous in cells; host or cells: SW3T3 cells
T3 sequence (P42337 whole entry): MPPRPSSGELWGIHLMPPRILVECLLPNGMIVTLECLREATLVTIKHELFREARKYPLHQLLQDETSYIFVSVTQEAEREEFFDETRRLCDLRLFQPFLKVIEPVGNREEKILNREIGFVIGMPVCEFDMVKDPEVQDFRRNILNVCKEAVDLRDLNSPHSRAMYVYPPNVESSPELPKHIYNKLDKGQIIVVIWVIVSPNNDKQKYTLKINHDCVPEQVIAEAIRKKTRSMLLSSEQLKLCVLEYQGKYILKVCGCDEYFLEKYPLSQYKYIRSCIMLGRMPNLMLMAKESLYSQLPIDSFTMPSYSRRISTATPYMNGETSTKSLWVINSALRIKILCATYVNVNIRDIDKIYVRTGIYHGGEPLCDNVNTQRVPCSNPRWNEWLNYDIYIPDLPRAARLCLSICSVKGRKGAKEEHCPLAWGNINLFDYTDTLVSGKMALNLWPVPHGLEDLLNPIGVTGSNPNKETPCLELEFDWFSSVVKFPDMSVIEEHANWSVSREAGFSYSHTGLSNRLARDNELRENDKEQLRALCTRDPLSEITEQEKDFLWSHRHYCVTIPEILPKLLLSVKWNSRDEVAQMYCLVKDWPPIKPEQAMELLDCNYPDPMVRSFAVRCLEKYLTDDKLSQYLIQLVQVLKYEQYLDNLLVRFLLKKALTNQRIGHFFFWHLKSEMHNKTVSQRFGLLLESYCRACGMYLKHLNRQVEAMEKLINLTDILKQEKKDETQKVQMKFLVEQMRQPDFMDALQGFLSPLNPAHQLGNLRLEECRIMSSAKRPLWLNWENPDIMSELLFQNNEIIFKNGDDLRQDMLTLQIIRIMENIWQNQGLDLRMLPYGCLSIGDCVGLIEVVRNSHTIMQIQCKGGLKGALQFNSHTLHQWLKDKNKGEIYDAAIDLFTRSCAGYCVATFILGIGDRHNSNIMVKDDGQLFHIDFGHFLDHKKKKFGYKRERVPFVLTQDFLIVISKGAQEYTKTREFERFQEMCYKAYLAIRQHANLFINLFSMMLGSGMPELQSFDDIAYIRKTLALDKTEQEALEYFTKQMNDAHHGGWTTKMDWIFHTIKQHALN
T3 sequence (P26450 whole entry partner): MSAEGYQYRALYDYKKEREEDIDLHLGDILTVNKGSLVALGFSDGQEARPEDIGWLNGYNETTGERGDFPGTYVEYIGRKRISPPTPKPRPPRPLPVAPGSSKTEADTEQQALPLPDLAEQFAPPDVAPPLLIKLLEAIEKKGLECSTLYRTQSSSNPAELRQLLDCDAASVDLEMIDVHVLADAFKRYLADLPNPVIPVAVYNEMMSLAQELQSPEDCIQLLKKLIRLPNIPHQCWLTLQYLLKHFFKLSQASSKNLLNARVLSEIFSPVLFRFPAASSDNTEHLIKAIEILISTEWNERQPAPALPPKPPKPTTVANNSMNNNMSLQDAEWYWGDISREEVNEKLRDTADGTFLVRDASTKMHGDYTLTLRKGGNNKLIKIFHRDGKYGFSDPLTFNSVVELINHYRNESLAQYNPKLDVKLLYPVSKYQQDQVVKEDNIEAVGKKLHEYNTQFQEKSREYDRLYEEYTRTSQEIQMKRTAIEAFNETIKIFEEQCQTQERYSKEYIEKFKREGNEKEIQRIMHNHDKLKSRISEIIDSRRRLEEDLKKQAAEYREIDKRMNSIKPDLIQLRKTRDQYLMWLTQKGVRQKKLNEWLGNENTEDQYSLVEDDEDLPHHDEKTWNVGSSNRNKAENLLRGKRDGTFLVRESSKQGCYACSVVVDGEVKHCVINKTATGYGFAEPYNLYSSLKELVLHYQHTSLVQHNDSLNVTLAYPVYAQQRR
Protocol: as §2

MDA-MB-231 = experiment: NCI panel growth inhibition, MDA-MB-231; type: cell-based; details: Homo sapiens, Breast Cancer
Description: as §1

PIKC3 = PIKC3 (Homo sapiens, UniProt Q8NEB9); experiment: biochemical
Chain of PIKC3 (Q8NEB9 whole entry): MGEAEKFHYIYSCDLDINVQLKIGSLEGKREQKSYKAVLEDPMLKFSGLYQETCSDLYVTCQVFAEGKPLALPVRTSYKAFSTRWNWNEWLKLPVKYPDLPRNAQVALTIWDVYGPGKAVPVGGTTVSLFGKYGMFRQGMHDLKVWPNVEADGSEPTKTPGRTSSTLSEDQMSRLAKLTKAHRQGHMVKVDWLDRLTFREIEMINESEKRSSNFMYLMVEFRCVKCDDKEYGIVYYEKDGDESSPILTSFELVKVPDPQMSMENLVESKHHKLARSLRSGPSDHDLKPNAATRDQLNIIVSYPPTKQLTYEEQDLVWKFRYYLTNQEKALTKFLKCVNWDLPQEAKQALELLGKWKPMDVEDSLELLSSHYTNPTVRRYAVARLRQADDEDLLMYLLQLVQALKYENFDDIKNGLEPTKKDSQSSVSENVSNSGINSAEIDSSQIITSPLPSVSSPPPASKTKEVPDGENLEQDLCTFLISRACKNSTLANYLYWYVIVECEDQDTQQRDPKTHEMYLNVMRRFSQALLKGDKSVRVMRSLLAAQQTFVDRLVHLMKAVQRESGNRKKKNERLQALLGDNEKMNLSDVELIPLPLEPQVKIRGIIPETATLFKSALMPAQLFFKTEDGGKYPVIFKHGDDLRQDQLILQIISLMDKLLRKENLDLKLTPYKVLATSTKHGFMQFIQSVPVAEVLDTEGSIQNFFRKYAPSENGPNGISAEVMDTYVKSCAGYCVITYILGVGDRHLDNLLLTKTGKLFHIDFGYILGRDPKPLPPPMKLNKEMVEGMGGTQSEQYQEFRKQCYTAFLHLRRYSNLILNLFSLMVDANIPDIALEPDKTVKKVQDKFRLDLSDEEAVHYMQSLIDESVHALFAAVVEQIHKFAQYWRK
Description: This table provides IC-50's for inhibition of kinase activity of these other lipid kinases: […]

OVCAR-3 = experiment: Tumor cell culture growth, optical density at 459 nm (FIG. 7), OVCAR-3; type: cell-based; details: OVCAR-3, 5-10 micromolar
SF-539 = experiment: NCI panel growth inhibition, SF-539; type: cell-based; details: Homo sapiens, CNS Cancer
Description: as §1

MCF7 = experiment: NCI panel growth inhibition, MCF7; type: cell-based; details: Homo sapiens, Breast Cancer
Description: as §1

HOP-92 = experiment: NCI panel growth inhibition, HOP-92; type: cell-based; details: Homo sapiens, Non-Small Cell Lung Cancer
Description: as §1

For `C[C@H](Nc1ncnc2[nH]cnc12)c1nc2ccc(F)cc2c(=O)n1-c1ccccc1` [Compound I], the GI50 (786-0) was 1990 nM, the “Phosphorylation of Akt” value [1] was “inhibits phosphorylation of Akt” and the GI50 (SK-MEL-2) was 100 µM. It also gave an IC50 (mTOR) of 100 µM, a GI50 (ACHN) of 10.7 µM and an EC50 (p110δ) of roughly 15 nM. For the same compound, the GI50 (KM12) was 2000 nM, the GI50 (LOX IMVI) was 36.1 µM and the Half-life in vivo [2] was “several hours”. The “Peak plasma level compared to Compound B” value ([2]; in vivo, po) was “higher peak plasma level”, the “Plasma level maintained for several hours” value ([2]; in vivo, po, 20 mg/kg) was “about 500 ng/mL” and the GI50 (BT-549) was 538 nM. The GI50 (PC-3) was 647 nM, the “Tumor volume of OVCAR-3 xenograft” value (OVCAR-3 xenografts) was “the size of the existing tumor was actually reduced; also recorded: completely inhibited growth; also recorded: Tumor volume actually decreased” and the GI50 (SK-MEL-5) was 31.3 µM. It also gave a GI50 (SK-OV-3) of 4.02 µM, an EC50 (p110γ; FB, read-out: Cell-based assay EC50 p110γ, FB) of 3 µM and an EC50 (p110γ; WB, read-out: Cell-based assay EC50 p110γ, WB) of 5.4 µM. The EC50 (p110α) was greater than 20 µM, the GI50 (MDA-MB-231) was 100 µM and the IC50 (PIKC3) was 2500 nM. For the same compound, the “Inhibition of tumor cell culture growth” value (OVCAR-3) was “strong inhibition of growth”, the GI50 (SF-539) was 15.9 µM and the GI50 (MCF7) was 2540 nM. It also gave a GI50 (HOP-92) of 300 nM.
